Our source for the IC50 values is patent US12692254B2, “Benzimidazole inhibitors of PAD enzymes” (BRISTOL-MYERS SQUIBB COMPANY, priority 2018, dated 2026).

The IC50 is the point on the concentration scale where inhibition reaches its midpoint.

The target in the experiment is human PAD4 (hPAD4) (Homo sapiens, UniProt Q9UM07). Put plainly: RFMS human PAD4 functional assay (rapid-fire mass spectrum). Format: biochemical. The following applies: 5 nM hPAD4 enzyme, 250 μM BAEE, 50 μM Calcium; 30 min preincubation, 90 min reaction at 37° C. Summed up:
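PAD4 (10 nM) preincubated 30 min with compound (top final 50 μM), then BAEE substrate added in pH 7.5 HEPES buffer with DTT, 50 μM calcium, TPEN; 90 min at 37° C. After TCA quench, citrulline derivatized with phenyl glyoxal (4 mM final, 30 min, 37° C) and quantified by RapidFire MS against internal standard.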

Each structure is given as a SMILES string.

human PAD4 (hPAD4), sequence (Q9UM07 whole entry): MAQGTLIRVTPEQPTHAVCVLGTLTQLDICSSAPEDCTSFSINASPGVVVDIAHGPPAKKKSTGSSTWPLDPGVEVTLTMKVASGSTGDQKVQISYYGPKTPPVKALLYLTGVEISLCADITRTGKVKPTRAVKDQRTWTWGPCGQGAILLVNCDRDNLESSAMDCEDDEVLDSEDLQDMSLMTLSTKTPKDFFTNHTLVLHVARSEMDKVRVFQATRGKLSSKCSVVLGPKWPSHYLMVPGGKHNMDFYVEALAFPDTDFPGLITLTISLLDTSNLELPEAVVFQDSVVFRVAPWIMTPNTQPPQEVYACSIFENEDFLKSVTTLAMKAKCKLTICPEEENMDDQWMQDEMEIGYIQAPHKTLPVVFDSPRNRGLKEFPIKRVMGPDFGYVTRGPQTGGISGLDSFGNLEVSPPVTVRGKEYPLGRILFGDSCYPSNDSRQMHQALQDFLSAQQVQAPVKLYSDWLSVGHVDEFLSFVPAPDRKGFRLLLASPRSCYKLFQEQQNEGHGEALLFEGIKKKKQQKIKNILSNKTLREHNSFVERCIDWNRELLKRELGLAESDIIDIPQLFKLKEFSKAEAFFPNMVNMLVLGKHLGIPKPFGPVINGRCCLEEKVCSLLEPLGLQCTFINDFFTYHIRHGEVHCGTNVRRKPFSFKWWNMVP

`COc1cc(C(=O)N2C[C@H]3CC[C@@H]2[C@@H]3N)cc2nc(-c3cc4cccnc4n3CC3CC3)n(CC3CN(C(=O)c4ccc(C#N)cc4)C3)c12` [Example 112, 4-[3-({5-[(1R,4R,7R)-7-amino-2-azabicyclo[2.2.1]heptane-2-carbonyl]-2-[1-(cyclopropylmethyl)-1H-pyrrolo[2,3-b]pyridin-2-yl]-7-methoxy-1H-1,3-benzodiazol-1-yl}methyl)azetidine-1-carbonyl]benzonitrile]: the IC50 worked out at 51 nM.

On to `COc1cc(C(=O)N2CC3CCC2[C@@H]3N)cc2nc(-c3cc4ccccc4n3CC3CC3)n(C[C@H]3CCN(c4ccnc(C)n4)C3)c12` (stereo partly drawn) [Example 224, (1R.,4R,7R)-2-{2-[1-(cyclopropylmethyl)-1H-indol-2-yl]-7-methoxy-1-{[(3S)-1-(2-methylpyrimidin-4-yl)pyrrolidin-3-yl]methyl}-1H-1,3-benzodiazole-5-carbonyl}-2-azabicyclo[2.2.1]heptan-7-amine], for which the 50% inhibitory concentration (IC50) was found to be 19 nM.

For `COc1cc(C(=O)N2CC3CCC2[C@@H]3N)cc2nc(-c3cc4ccccc4n3CC3CC3)n(Cc3cnn(-c4ccc(O)nc4)c3)c12` (stereo partly drawn) [Example 399, 5-[4-({5-[(7R)-7-amino-2-azabicyclo[2.2.1]heptane-2-carbonyl]-2-[1-(cyclopropylmethyl)-1H-indol-2-yl]-7-methoxy-1H-1,3-benzodiazol-1-yl}methyl)-1H-pyrazol-1-yl]pyridin-2-ol], the IC50 turned out to be 57 nM.

As for `CCC(=O)N1CC(Cn2c(-c3cc4cccnc4n3CC3CC3)nc3cc(C(=O)N4C[C@H]5CC[C@@H]4[C@@H]5N)cc(OC)c32)C1` [Example 134, 1-[3-({5-[(1R,4R,7R)-7-amino-2-azabicyclo[2.2.1]heptane-2-carbonyl]-2-[1-(cyclopropylmethyl)-1H-pyrrolo[2,3-b]pyridin-2-yl]-7-methoxy-1H-1,3-benzodiazol-1-yl}methyl)azetidin-1-yl]propan-1-one], the half-maximal inhibitory concentration (IC50) stood at 193 nM.

Turning to `COc1cc(C(=O)N2CC3CCC2[C@@H]3N)cc2nc(-c3cc4ccccc4n3CC3CC3)n(Cc3cnn(-c4ccc(C)nc4)c3)c12` (stereo partly drawn) [Example 350, (7R)-2-{2-[1-(cyclopropylmethyl)-1H-indol-2-yl]-7-methoxy-1-{[1-(6-methylpyridin-3-yl)-1H-pyrazol-4-yl]methyl}-1H-1,3-benzodiazole-5-carbonyl}-2-azabicyclo[2.2.1]heptan-7-amine], the concentration for half-maximal inhibition (IC50) was found to be 16 nM.

`COc1cc(C(=O)N2C[C@H]3CC[C@@H]2[C@@H]3N)cc2nc(-c3cc4cccnc4n3C)n(CC3CN(c4cncc(C#N)n4)C3)c12` [Example 40, 6-[3-({5-[(1R,4R,7R)-7-amino-2-azabicyclo[2.2.1]heptane-2-carbonyl]-7-methoxy-2-{1-methyl-1H-pyrrolo[2,3-b]pyridin-2-yl}-1H-1,3-benzodiazol-1-yl}methyl)azetidin-1-yl]pyrazine-2-carbonitrile]: the half-inhibitory concentration (IC50) was 98 nM.

With `COc1cc(C(=O)N2C[C@H]3CC[C@@H]2[C@@H]3N)cc2nc(-c3cc4cccnc4n3CC3CC3)n(C3CN(c4nccc(C(=O)O)n4)C3)c12` [Example 72, 2-(3-{5-[(1R,4R,7R)-7-amino-2-azabicyclo[2.2.1]heptane-2-carbonyl]-2-[1-(cyclopropylmethyl)-1H-pyrrolo[2,3-b]pyridin-2-yl]-7-methoxy-1H-1,3-benzodiazol-1-yl}azetidin-1-yl)pyrimidine-4-carboxylic acid], the IC50 is 113 nM.

On to `COC(=O)NCCn1c(-c2cc3cccnc3n2CC2CC2)nc2cc(C(=O)N3C[C@H]4CC[C@@H]3[C@@H]4N)cc(OC)c21` [Example 284, methyl N-(2-{5-[(1R,4R,7R)-7-amino-2-azabicyclo[2.2.1]heptane-2-carbonyl]-2-[1-(cyclopropylmethyl)-1H-pyrrolo[2,3-b]pyridin-2-yl]-7-methoxy-1H-1,3-benzodiazol-1-yl}ethyl)carbamate], for which the concentration for half-maximal inhibition (IC50) came out at 925 nM.

As to `COc1cc(C(=O)N2CC3CCC2[C@@H]3N)cc2nc(-c3cc4ccccc4n3CC3CC3)n(C[C@H]3CCN(C(=O)c4ccc(C#N)cc4)C3)c12` (stereo partly drawn) [Example 226, 4-[(3S)-3-({5-[(1R,4R,7R)-7-aminobicyclo[2.2.1]heptane-2-carbonyl]-2-[1-(cyc1opropylmethyl)-1H-indo1-2-yl]-7-methoxy-1H-1,3-benzodiazol-1-yl}methyl)pyrrolidine-1-carbonyl]benzonitrile], the IC50 amounted to 37 nM.

With `COc1cc(C(=O)N2CC3CCC2[C@@H]3N)cc2nc(-c3cc4cccnc4n3CC3CC3)n(CC3CN(C(=O)Nc4ccccc4)C3)c12` (stereo partly drawn) [Example 455, 3-({5-[(7R)-7-amino-2-azabicyclo[2.2.1]heptane-2-carbonyl]-2-[1-(cyclopropylmethyl)-1H-pyrrolo[2,3-b]pyridin-2-yl]-7-methoxy-1H-1,3-benzodiazol-1-yl}methyl)-N-phenylazetidine-1-carboxamide], the IC50 turned out to be 59 nM.

`COc1cc(C(=O)N2CC3CCC2[C@@H]3N)cc2nc(-c3cc4ccccc4n3CC3CC3)n(CC3CN(C(=O)c4ccc(C#N)cn4)C3)c12` (stereo partly drawn) [Example 435, 6-[3-({5-[(7R)-7-amino-2-azabicyclo[2.2.1]heptane-2-carobnyl]-2-[1-(cyclopropylmethyl)-1H-indol-2-yl]-7-methoxy-1H-1,3-benzodiazol-1-yl}methyl)azetidine-1-carobnyl]pyridine-3-carbonitrile]: the IC50 is 34 nM.

As to `COc1cc(C(=O)N2C[C@H]3CC[C@@H]2[C@@H]3N)cc2nc(-c3cc4cccnc4n3CC3CC3)n(C[C@@H]3CCN(c4cncc(C#N)c4)C3)c12` [Example 211, 5-[(3R)-3-({5-[(1R,4R,7R)-7-amino-2-azabicyclo[2.2.1]heptane-2-carbonyl]-2-[1-(cyclopropylmethyl)-1H-pyrrolo[2,3-b]pyridin-2-yl]-7-methoxy-1H-1,3-benzodiazol-1-yl}methyl)pyrrolidin-1-yl]pyridine-3-carbonitrile], the concentration for half-maximal inhibition (IC50) was 80 nM.

Consider `COc1cc(C(=O)N2CCC[C@@H](N)C2)cc2nc(-c3cc4cccnc4n3CC3CC3)n(C3CN(S(C)(=O)=O)C3)c12` [Example 341, (3R)-1-{2-[1-(cyclopropylmethyl)-1H-pyrrolo[2,3-b]pyridin-2-yl]-1-(1-methanesulfonylazetidin-3-yl)-7-methoxy-IH-1,3-benzodiazole-5-carbonyl}piperidin-3-amine], for which the concentration for half-maximal inhibition (IC50) worked out at 2980 nM.

With `COc1cc(C(=O)N2C[C@H]3CC[C@@H]2[C@@H]3N)cc2nc(-c3cc4cccnc4n3CC3CC3)n(CC3CN(c4ccncc4)C3)c12` [Example 57, (1R,4R,7R)-2-{2-[1-(cyclopropylmethyl)-1H-pyrrolo[2,3-b]pyridin-2-yl]-7-methoxy-1-{[1-(pyridin-4-yl)azetidin-3-yl]methyl}-1H-1,3-benzodiazole-5-carbonyl}-2-azabicyclo[2.2.1]heptan-7-amine], the 50% inhibitory concentration (IC50) was 168 nM.

Take `COc1cc(C(=O)N2CC3CCC2[C@@H]3N)cc2nc(-c3cc4ccccc4n3CC3CC3)n(CC3CN(C(=O)c4cnccn4)C3)c12` (stereo partly drawn) [Example 436, (7R)-2-{2-[1-(cyclopropylmethyl)-1H-indol-2-yl]-7-methoxy-1-{[1-(pyrazine-2-carbonyl)azetidin-3-yl]methyl}-1H-1,3-benzodiazole-5-carbonyl}-2-azabicyclo[2.2.1]heptan-7-amine]: the IC50 was 34 nM.

For `COc1cc(C(=O)N2CC3CCC2[C@@H]3N)cc2nc(-c3cc4cccnc4n3CC3CC3)n(CC3CN(S(=O)(=O)c4cccc(F)c4)C3)c12` (stereo partly shown) [Example 333], the 50% inhibitory concentration (IC50) came out at 222 nM.

As for `CCOC(=O)N1CC(Cn2c(-c3cc4cccnc4n3CC3CC3)nc3cc(C(=O)N4C[C@H]5CC[C@@H]4[C@@H]5N)cc(OC)c32)C1` [Example 130, ethyl 3-({5-[(1R,4R,7R)-7-amino-2-azabicyclo[2.2.1]heptane-2-carbonyl]-2-[1-(cyclopropylmethyl)-1H-pyrrolo[2,3-b]pyridin-2-yl]-7-methoxy-1H-1,3-benzodiazol-1-yl}methyl)azetidine-1-carboxylate], the half-inhibitory concentration (IC50) was determined as 128 nM.

For the molecule `CCS(=O)(=O)N1CC(Cn2c(-c3cc4cccnc4n3CC3CC3)nc3cc(C(=O)N4CC5CCC4[C@@H]5N)cc(OC)c32)C1` (stereo partly drawn) [Example 336, (1R,4R.,7R)-2-{2-[1-(cyclopropylmethyl)-1H-pyrrolo[2,3-b]pyridin-2-yl]-1-{[1-(ethanesulfonyl)azetidin-3-yl]methyl}-7-methoxy-1H-1,3-benzodiazole-5-carbonyl}-2-azabicyclo[2.2,1]heptan-7-amine], the IC50 was determined as 310 nM.

Take `COc1cc(C(=O)N2C[C@H](N)C[C@@H](F)C2)cc2nc(-c3cc4ccccc4n3CC3CC3)n(Cc3cnn(C)c3)c12` [Example 257, (3R,5R)-1-{2-[1-(cyclopropylmethyl)-1H-indol-2-yl]-7-methoxy-1-[(1-methyl-1H-pyrazol-4-yl)methyl]-1H-1,3-benzodiazole-5-carbonyl}-5-fluoropiperidin-3-amine]: the IC50 came to 41 nM.

Take `COc1cc(C(=O)N2CC3CCC2[C@@H]3N)cc2nc(-c3cc4ccccc4n3CC(F)F)n(Cc3cnn(C)c3)c12` (stereo partly drawn) [Example 502, (7R)-2-{2-[1-(2,2-difluoroethyl)-1H-indol-2-yl]-7-methoxy-1-[(1-methyl-1H-pyrazol-4-yl)methyl]-1H-1,3-benzodiazole-5-carbonyl}-2-azabicyclo[2.2.1]heptan-7-amine]: the IC50 was determined as 146 nM.

For the molecule `COc1cc(C(=O)N2CC3CCC2[C@@H]3N)cc2nc(-c3cc4cccnc4n3CC3CC3)n(CC3CN(C(=O)c4cc(F)ccc4F)C3)c12` (stereo partly drawn) [Example 422, (7R)-2-{2-[1-(cyclopropylmethyl)-1H-pyrrolo[2,3-b]pyridin-2-yl]-1-{[1-(2,5-difluorobenzoyl)azetidin-3-yl]methyl}-7-methoxy-1H-1,3-benzodiazole-5-carbonyl}-2-azabicyclo[2.2.1]heptan-7-amine], the IC50 turned out to be 22 nM.

Regarding `CCc1ccccc1-c1nc2cc(C(=O)N3CC4CCC3[C@@H]4N)cc(OC)c2n1CC1CN(c2cncc(C)c2)C1` (stereo partly drawn) [Example 323, (1R,4R,7R)-2-[2-(2-ethytphenyl)-7-methoxy-1-{[1-(5-methylpyridin-3-yl)azetidin-3-yl]methyl}-1H-1,3-benzodiazole-5-carbonyl]-2-azabicyclo[2.2.1]heptan-7-amine], the IC50 is 2990 nM.
